Experimental data from patent US9480754B2, “Phospholipid ether analogs as cancer-targeting drug vehicles” (Cellectar Biosciences, Inc., priority 2014, dated 2016).

Assays:
[1] = tested on: non-small cell lung carcinoma (NSCLC); assay: Clinical imaging of advanced NSCLC patients with 131I-CLR1404; assay type: in vivo, human; settings: two patients, injection of <1 mCi 131I-CLR1404, gamma imaging
Description: To date, two patients with advanced NSCLC were imaged after an injection of <1 mCi of ^131I-CLR1404. Blood and urine samples were collected at predetermined times, and gamma imaging performed at several time points following administration.
Materials and Methods: Following intravenous injection of iodine-131 labeled CLR1404 (1 mCi/20 μg), patients with advanced NSCLC where scanned at 3, 6, 24, 48, 96 h and at 7 and 11 days on a GE Maxxus dual Head SPECT scanner. Blood and urine samples were collected for pharmacokinetic analysis as well as clinical hematologic, renal, and hepatic bioanalysis.

[2] = CLR1404 tumor selectivity across 60 tumor models; assay type: in vivo, rodent; settings: athymic nude (Hsd:Athymic Nude-Foxn1nu or Crl:NU-Foxn1nu), tumor, intravenous; xenograft, orthotopic, transgenic and spontaneous rodent models; read-out: tumor models showing selective uptake and prolonged retention
Description: All described animal studies were performed according to animal protocols approved by the Institutional Animal Care and Use Committee. Female athymic nude mice (Hsd:Athymic Nude-Foxnlnu or Crl:NU-Foxnlnu, Charles River Laboratories) about 4 to 5 weeks of age, 16 to 18 g (n=6), were used for human tumor xenograft studies. Mice were anesthetized with isoflurane and injected subcutaneously with viable tumor cells in 100 μl of Dulbecco's PBS (or, for glioma cells, […] of PBS) into the right flank. Inoculum sizes were 1×10^6 (for renal, ovarian, glioma, pancreatic, prostate, and NSCLC models), […] (for colorectal and uterine models), or 3×10^6 (breast).
Radioiodinated ^124I-CLR1404 was tested in subcutaneous and orthotopic xenografts of 60 different spontaneous, transgenic, human, and rodent malignant cell lines and tumor types. […] Representative examples are of both human (FIG. 5A-5I) and rodent (FIG. 5J-M) tumors.

[3] = tested on: human RL-251 tumor xenograft; assay: Retention of 131I-CLR1404 by RL-251 tumor xenograft; assay type: in vivo, SCID mouse; settings: FIG. 3
From the text: FIG. 3. Prolonged retention of ^131I-CLR1404 by human RL-251 tumor xenograft in SCID mouse.
CLR1404 is a PLE. Results obtained in a variety of tumor models indicate that CLR1404 is sequestered and selectively retained by cancer cells and cancer stem cells. […] CLR1404 localizes in both primary and metastatic lesions regardless of anatomic location including those found in lymph nodes. See Examples 3-8.

MDA-MB-468 cells [4] = assay: Annexin V/PI flow cytometry, MDA-MB-468; assay type: cell-based; settings: 48 hrs
PC-3 (Prostate) = assay: Cell viability IC50, PC-3; assay type: cell-based
Description: The cell lines were then measured for cell viability and reported as IC50 for each treatment.

MDA-MB-468 cells [5] = assay: Annexin V/PI flow cytometry, MDA-MB-468; assay type: cell-based; settings: table title 72 hours, text: paclitaxel for 24 hours
Description: Debris was eliminated from this analysis.
MDA-MB-468 cells, were also treated with CLR conjugates (CLR1606 and CLR1607) for 72 hours and with geldanamycin (“GEL”) for 48 hours.
CLR conjugates appear to require a longer treatment period with cells to induce cell death.

IC50 (PC-3 (Prostate))	SMILES	tumor uptake and retention in the primary lung tumor [1]	number of tumor models with selective uptake [2]	time remaining in cancer cells [3]	Live (MDA-MB-468 cells [4]; MDA-MB-468, 100 nM)	Live (MDA-MB-468 cells [4]; MDA-MB-468, 1 uM)	Live (MDA-MB-468 cells [5]; MDA-MB-468, PTX 100 nM)	Live (MDA-MB-468 cells [5]; MDA-MB-468, PTX 1 uM)
–	C[N+](C)(C)CCOP(=O)([O-])OCCCCCCCCCCCCCCCCCCc1ccc(I)cc1 [CLR1404, 18-(p-Iodophenyl)octadecyl phosphocholine]	significant tumor uptake and retention	> 55	up to 20 days	–	–	–	–
900 pM	CC(=O)O[C@H]1C(=O)[C@@]2(C)[C@H]([C@H](OC(=O)c3ccccc3)[C@]3(O)C[C@H](OC(=O)[C@H](O)[C@@H](NC(=O)c4ccccc4)c4ccccc4)C(C)=C1C3(C)C)[C@]1(OC(C)=O)CO[C@@H]1C[C@@H]2O [Paclitaxel, paclitaxel, reference compound]	–	–	–	77.9 % of total cells	73.3 % of total cells	53.8 % of total cells	48.9 % of total cells
